Measured values reported in patent publication US20250346582A1, “SPLEEN TYROSINE KINASE INHIBITORS AND METHODS OF USE THEREOF” (THE BOARD OF TRUSTEES OF THE UNIVERSITY OF ILLINOIS, priority 2022, published 2025).
Like-named read-outs stand apart in the source and are kept apart here.

Legend:
[1] = molecular target: T1, Syk-cSH2 (Homo sapiens, UniProt P43405); experiment: Fluorescence quenching vesicle binding assay, Syk-cSH2
T1 construct: polyhistidine (N); made in house; host or cells: Escherichia coli BL21 (DE3) pLysS
Description: (§1) The membrane-binding assay is based on fluorescence quenching of EGFP fused to a SH2 domain by a dark quencher containing lipid, dabsyl-PE, incorporated in lipid vesicles. The plate reader assay was performed using the Synergy™ Neo spectrofluorometer at 25° C. Nontreated black polystyrene 96-well plates (Corning) were used. Protein (10-50 nM) with the increasing concentration of vesicles with a given lipid composition in 20 mM Tris buffer, pH 7.4, containing 0.16 M NaCl was added to each row of wells and the EGFP fluorescence emission at 516 nm was measured with excitation set at 485 nm. Z′ factor for the assay system was determined as described^74. Imax and IC50 values of inhibitors were determined using the equation, I=Imax/(1+IC50/[I]) where I and [I] indicate % inhibition and inhibitor concentration, respectively. The average and standard deviation values were obtained from triplicate determinations.
(§2) We also optimized a recently developed fluorescence quenching-based lipid-binding assay^47 for high-throughput screening of these molecules for their inhibitory activity against the PIP3-SH2 interaction. Specifically, we expressed SH2 domains as EGFP-tagged proteins and directly quantified their membrane binding by monitoring the quenching of EGFP fluorescence emission intensity by a dark quencher-containing lipid, N-dimethylaminoazo-benzenesulfonyl-phosphatidylethanolamine (dabsyl-PE), incorporated in the vesicles. We then screened for compounds that inhibited binding of Syk-cSH2, BLNK-SH2, and PLCγ2-cSH2, respectively, to 1-palmitoyl-2-oleoyl-PC (POPC)/1-palmitoyl-2-oleoyl-PS (POPS)/PIP3/dabsyl-PE (67:20:3:10) vesicles while eliminating those that inhibit their non-specific binding to anionic POPC/POPS/dabsyl-PE (70:20:10) vesicles. The quality of the screening system was evaluated using 1% dimethylsulfoxide (DMSO) and 20 μM D-myo-inositol-1,3,4,5-tetraphosphate (IP4) as negative and positive controls, respectively. The clear separation of positive and negative control data and the average Z′-factor of 0.7 supported the robustness of our system for high-throughput screen of PIP3-SH2 interaction inhibitors.

[2] = molecular target: T2, BLNK-SH2 (Homo sapiens, UniProt Q8WV28); experiment: Fluorescence quenching vesicle binding assay, BLNK-SH2; settings: Table 2; BLNK-SH2 binding to POPC/POPS/PIP3/dabsyl-PE vesicles; read-out: Imax (%)
T2 construct: All SH2 domain constructs were cloned into the pRSET-B vector; polyhistidine (N); made in house; host or cells: Escherichia coli BL21 (DE3) pLysS
T2 sequence (Q8WV28 346-453 limits assumed): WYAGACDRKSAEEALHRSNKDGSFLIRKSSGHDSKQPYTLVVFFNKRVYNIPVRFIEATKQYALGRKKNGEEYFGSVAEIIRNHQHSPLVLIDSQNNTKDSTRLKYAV
Description: as §1, §2

[3] = molecular target: T3, PLCγ2-cSH2 (Homo sapiens, UniProt P16885); experiment: Fluorescence quenching vesicle binding assay, PLCγ2-cSH2; settings: Table 2, PLCγ2-cSH2 binding to POPC/POPS/PIP3/dabsyl-PE vesicles
T3 construct: polyhistidine (N); made in house; host or cells: Escherichia coli BL21 (DE3) pLysS
T3 sequence (P16885 646-735 limits assumed): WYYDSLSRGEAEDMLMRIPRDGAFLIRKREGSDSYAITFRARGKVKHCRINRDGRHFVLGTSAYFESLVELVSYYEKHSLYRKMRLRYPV
Description: as §1, §2

[4] = system: BCR signaling axis (Syk-BLNK-PLCγ2); experiment: Western blot of BCR signaling axis in Raji B lymphocytes; format: cell-based; settings: Raji B cells
Description: Cells were seeded at a density of 3.0×10^5 cells/well prior to incubation with inhibitors. Cells were incubated with 1-5 μM of Syk inhibitors overnight and stimulated with different antibodies: IgG2 for AML cells, IgM for Raji B cells, and OKT3 (Biolegend) for Jurkat cells. The cells were lysed in NP40 lysis buffer (50 mM Tris, pH 7.5, 150 mM NaCl, 1 mM EDTA, 1% NP40, 10% glycerol, 10 mM NaF, 10 mM Na3VO4, and the protease inhibitor cocktail) at 4° C. and the cell debris was removed by centrifugation. Samples were analyzed by SDS-PAGE. Proteins were separated and transferred to Immobilon-P polyvinylidene difluoride membrane (Millipore Sigma). The membrane was blocked with 5% bovine serum albumin for 1 h and incubated overnight at 4° C. with various antibodies (1:1000 dilution for all antibodies). After the unbound antibodies were removed by washing with 0.1% Tris buffer saline with 0.1% Tween20, the membranes were incubated with the horseradish peroxidase secondary antibody (1:5000 dilution) for 1 h at room temperature. The membranes were washed three more times with 0.1% Tris buffer saline with 0.1% Tween20 to remove the unbound horseradish peroxidase secondary antibody before imaging. The chemiluminescence intensity of protein bands in the gel was analyzed and documented by the Azure 500Q Imaging System.

[5] = Table 3, efficacy determined by the vesicle binding assay
[6] = Table 3, efficacy determined by the vesicle binding assay, read-out: IC50

| SMILES | Imax (%) [1, 5] | IC50 [1, 6] | other results |
| --- | --- | --- | --- |
| CCOC(=O)NC(C(=O)OCC)c1cccc(Cl)n1 (centres unmarked) [VG370] | – | – | Imax (%) ([1]; Table 2, Syk-cSH2 binding to POPC/POPS/PIP3/dabsyl-PE vesicles): <10%; Emax [2]: < 20%; IC50 [3]: 0.68 ± 0.05 µM; Emax ([3]; read-out: Imax (%)): 40 to 50%; effect on phosphorylation of BCR signaling proteins (Syk, BLNK, PLCγ2) [4]: selectively suppressed phosphorylation of PLCγ2 |
| [N-]=[N+]=C(C(=O)OC1CCCCC1)C(Nc1ncccn1)c1ccc(O)cc1 (centres unmarked) [WC = 42] | Imax (%) = 12 | 4 µM | – |
| COc1ccc(C(Nc2ncccn2)C(=[N+]=[N-])C(=O)OC2CCCCC2)cc1 (centres unmarked) [WC-30] | Imax (%) = 10 | 3.8 µM | – |
| [N-]=[N+]=C(C(=O)OC1CCCCC1)C(Nc1ncccn1)c1ccc(F)cc1 (centres unmarked) [WC-32] | Imax (%) = 10 | 5 µM | – |
| CN(C)c1ccc(C(Nc2ncccn2)C(=[N+]=[N-])C(=O)OC2CCCCC2)cc1 (centres unmarked) [WC-34] | Imax (%) = 10 | 2.8 µM | – |
| [N-]=[N+]=C(C(=O)OC1CCCCC1)C(Nc1ncccn1)c1cccs1 (centres unmarked) [WC-37] | Imax (%) = 15 | 2.8 µM | – |
| COc1cc(OC)cc(C(Nc2ncccn2)C(=[N+]=[N-])C(=O)OC2CCCCC2)c1 (centres unmarked) [WC-45] | Imax (%) = 12 | 3.6 µM | – |
| [N-]=[N+]=C(C(=O)OC1CCCCC1)C(Nc1ncccn1)c1ccccc1 (centres unmarked) [WC-46] | Imax (%) = 10 | 5 µM | – |
| CC(C)(C)OC(=O)C(=[N+]=[N-])C(Nc1ccccn1)c1ccc(Br)cc1 (centres unmarked) [WC-50] | Imax (%) = 10 | 4.5 µM | – |
| [N-]=[N+]=C(C(=O)OC1CCCCC1)C(Nc1ccccn1)c1ccc(O)c(Br)c1 (centres unmarked) [WC-52] | Imax (%) = 12 | 3.5 µM | – |
| Cc1ccc(C(Nc2ncccn2)C(=[N+]=[N-])C(=O)OC(C)(C)C)cc1 (centres unmarked) [WC-56] | Imax (%) ≤ 10 | 2 µM | – |
| COc1cc(C(Nc2ncccn2)C(=[N+]=[N-])C(=O)OC(C)(C)C)cc(OC)c1OC (centres unmarked) [WC-59] | Imax (%) ≤ 10 | 4 µM | – |
| [N-]=[N+]=C(C(=O)OC1CCCCC1)C(Nc1ccccn1)c1ccc(Br)cc1 (centres unmarked) [WC-62] | Imax (%) ≤ 10 | 5 µM | – |
| [N-]=[N+]=C(C(=O)OC1CCCCC1)C(Nc1ncccn1)c1ccc(Br)cc1 (centres unmarked) [WC-68] | Imax (%) ≤ 10 | 4.5 µM | – |
| [N-]=[N+]=C(C(=O)OC1CCCCC1)C(Nc1ncccn1)c1c(F)c(F)c(F)c(F)c1F (centres unmarked) [WC-70] | Imax (%) ≤ 10 | 2.5 µM | – |
| Cc1ccc(C(Nc2cnccn2)C(=[N+]=[N-])C(=O)OC2CCCCC2)cc1 (centres unmarked) [WC-73] | Imax (%) ≤ 10 | 8 µM | – |
| CCOP(=O)(OCC)C(=[N+]=[N-])C(Nc1ccccn1)c1ccc(C)cc1 (centres unmarked) [WC-75] | Imax (%) = 12 | – | IC50 [1]: 7 µM |
| Cc1ccc(C(CC(=O)OC2CCCCC2)Nc2ncccn2)cc1 (centres unmarked) [WC-79] | Imax (%) ≤ 10 | 10 µM | – |
| Cc1ccc(/C(=C/C(=O)OC2CCCCC2)Nc2cnccn2)cc1 [WC-80] | Imax (%) = > 10 | 15 µM | – |

| SMILES | Imax (%) [1, 5] | IC50 [1, 6] | other results |
| --- | --- | --- | --- |
| CCOP(=O)(/C=C(\Nc1ccccn1)c1ccc(C)cc1)OCC [WC-85] | Imax (%) ≤ 10 | – | IC50 [1]: 12 µM |
| CCOC(=O)/C=C(\NS(=O)(=O)c1ccccc1)c1ccc(C)cc1 [WC-90] | Imax (%) ≤ 10 | 20 µM | – |
| Cc1ccc(C(Nc2ncc(C)s2)C(=[N+]=[N-])C(=O)OC2CCCCC2)cc1 (centres unmarked) [WC-92] | Imax (%) = 15 | 10 µM | – |
| Cc1ccc(C(Nc2cc(C)ccn2)C(=[N+]=[N-])C(=O)OC2CCCCC2)cc1 (centres unmarked) [WC-95] | Imax (%) ≤ 10 | 5 µM | – |
| Cc1ccc(C(Nc2ncccn2)C(=[N+]=[N-])C(=O)OC2CCCC2)cc1 (centres unmarked) [WC-100] | Imax (%) = 18 | 2 µM | – |
| Cc1ccc(C(Nc2ncccn2)C(=[N+]=[N-])C(=O)ON2CCC(C)CC2)cc1 (centres unmarked) [WC-105] | Imax (%) = 15 | 4 µM | – |
| Cc1ccc(C(Nc2ncccn2)C(=[N+]=[N-])C(=O)ON2CCOCC2)cc1 (centres unmarked) [WC-108] | Imax (%) = 20 | 2 µM | – |
| Cc1ccc(C(Nc2ncccn2)C(=[N+]=[N-])C(=O)ON2CCN(C)CC2)cc1 (centres unmarked) [WC-109] | Imax (%) = 25 | 2 µM | – |
| CCOC(=O)C(=[N+]=[N-])C(Nc1ccccn1)c1ccccc1 (centres unmarked) [WC-110] | Imax (%) ≤ 10 | 5 µM | – |
| CCOC(=O)C(=[N+]=[N-])C(Nc1ccccn1)c1ccc(O)cc1 (centres unmarked) [WC-111] | Imax (%) ≤ 10 | 7 µM | – |
| CCOC(=O)C(=[N+]=[N-])C(Nc1ncccn1)c1ccc(O)cc1 (centres unmarked) [WC-115] | Imax (%) = 20 | 2 µM | – |
| [N-]=[N+]=C(C(=O)OC1CCCC1)C(Nc1ccccn1)c1ccccc1 (centres unmarked) [WC-118] | Imax (%) = 15 | 4 µM | – |
| [N-]=[N+]=C(C(=O)OC1CCCC1)C(Nc1ncccn1)c1ccc(C(F)(F)F)cc1 (centres unmarked) [WC-120] | Imax (%) = 20 | 4 µM | – |
| CCOC(=O)C(=[N+]=[N-])C(Nc1ccccn1)c1ccc(C(F)(F)F)cc1 (centres unmarked) [WC-121] | Imax (%) ≤ 10 | 4.8 µM | – |
| [N-]=[N+]=C(C(=O)OC1CCCCC1)C(Nc1cnccn1)c1cccnc1 (centres unmarked) [WC-125] | Imax (%) = 20 | 1.5 µM | – |
| CCOC(=O)C(=[N+]=[N-])C(Nc1ccccn1)c1cccnc1 (centres unmarked) [WC-128] | Imax (%) = 18 | 3.5 µM | – |
| [N-]=[N+]=C(C(=O)OC1CCCCC1)C(Nc1ncccn1)c1ccncc1 (centres unmarked) [WC-130] | Imax (%) = 25 | 2 µM | – |
| [N-]=[N+]=C(C(=O)OC1CCCCC1)C(C=Cc1ccccc1)Nc1ncccn1 (centres unmarked) [WC-132] | Imax (%) = 15 | 5 µM | – |
